From US5846723A, “Methods for detecting the RNA component of telomerase” (Geron Corporation, priority 1996, dated 1998) come the findings set out here.

Data set [1] deals with hTR in the context of the native telomerase enzyme. As to the kind of experiment: RNase H cleavage of hTR directed by antisense DNA oligonucleotides in native telomerase. The conditions noted are these: for RNaseH Digestion?: antisense DNA oligo, cleavage of hTR in native RNP, Table II; for ability to direct RNase H cleavage of hTR: native telomerase enzyme. In kind it is biochemical, human. From the text: The regions were identified in two ways. The first way involved contacting samples containing human telomerase with a variety of DNA polynucleotides having sequences complementary to the sequence of hTR under hybridization conditions, contacting the telomerase with RNase H, which cleaves the RNA strand of an RNA-DNA duplex, and determining whether hTR had been cleaved. […] The second way involved oligo-decoration. […] Other accessible areas of hTR can be identified by similar assays using antisense polynucleotides whose sequences are substantially complementary to a nucleotide sequence selected from hTR.
A set of 17 contiguous antisense DNA oligonucleotides (30 mers) were tested for their ability to direct RNase H cleavage of hTR in the context of the native telomerase enzyme. […] Antisense oligonucleotides "14", "16", and "21" (see Table II) were tested as potential inhibitors of human telomerase ("hTase").
The accessible regions were "fine mapped" by using shorter antisense oligonucleotides to direct RNase H cleavage of hTR.

Data set [2] concerns telomerase. As to the kind of experiment: Capture of active telomerase on streptavidin beads by biotinylated 2'OMe antisense analogs. The following applies: for Capture? (2'OMe): biotinylated 2'OMe antisense RNA analog of the oligo, streptavidin beads; for Capture? (2'OMe) / Activity on beads: Table II; for capture of active telomerase on streptavidin beads: biotinylated 2'OMe analogs; for Activity on beads: telomerase activity on beads after capture by 2'OMe analog. The format is binding, human. An excerpt:
On the bases of the antisense data, biotinylated 2'OMe antisense RNA analogs were designed for affinity purification of telomerase. The goal of the antisense affinity approach was to design ligands that afforded good purification and yield, while keeping the enzyme intact (i.e., active). Several 2'OMe ligands met our criteria (Table II, FIG. 1). […] These analogs were further refined via the synthesis of second generation antisense affinity ligands, which were designed to allow release of active telomerase (reversible ligands). Currently, our affinity scheme consists of two reversible antisense ligands, which are employed in series, and target two different regions of hTR. The first ligand is a disulfide version of 14ab which allows release of telomerase via dithiothreitol treatment. The second ligand contains the 21ab1 antisense sequence and plus a tail of "nonsense" sequence. hTR is released from the antisense ligand by a displacement DNA oligonucleotide, which is complementary to the entire length of the 21ab1 antisense affinity ligand.

Data set [3] has as its system human telomerase ("hTase"). As to the kind of experiment: Inhibition of human telomerase, standard primer elongation assay. The format is biochemical. The conditions noted are these: preincubation of partially purified nuclear or cytoplasmic extract with oligonucleotide.
Data set [4] relates to telomerase ribonucleoprotein. As to the kind of experiment: Oligodecoration: native gel mobility shift with labeled 2'-O-methyl antisense polynucleotides. In kind it is binding, human. The following applies: radioactively labeled 2'-O-methyl antisense polynucleotide; altered mobility on native gel. As for the experimental part: Oligodecoration was used to further identify accessible regions of the telomerase ribonucleoprotein. Radioactively labeled 2 0-methyl antisense polynucleotides were prepared and exposed to the telomerase ribonucleoprotein. The sample was incubated to allow the polynucleotide to bind to telomerase. Then the sample was run on a native gel. […] RP2 has the sequence CGG GCC AGC AGC TGA CA (SEQ ID NO:14).

Data set [5] relates to telomerase. As to the kind of experiment: Capture of telomerase on an affinity matrix. In kind it is binding, human.

In the case of “5' CATTTTTTGTTTGCTCTAGA 3' (antisense CATTTTTTGTTTGCTCTAGA; chemistry not given here) [20/21, antisense 20 mer]”, the “RNaseH Digestion?” value in data set [1] is given as “yes”.

Regarding “5' CCAACTCTTCGCGGTGGCAG 3' (antisense CCAACTCTTCGCGGTGGCAG; chemistry not given here) [Oligo 16bc, antisense 20 mer of the "16" region]”, in data set [1], the “RNaseH Digestion?” value was “yes” and the “ability to direct RNase H cleavage of hTR” value (shortened to “ability … of hTR”) is listed as “directed RNase H cleavage”. Further, the “Capture? (2'OMe)” value in the data set on telomerase [2] is “yes”.

On to “5' CCTGCGGCCTGAAACGGTGA 3' (antisense CCTGCGGCCTGAAACGGTGA; chemistry not given here) [Oligo 14bc, antisense 20 mer of the "14" region]”, for which the “RNaseH Digestion?” value in data set [1] is “no”.

Regarding “5' CGT TCC TCT TCC 3' (antisense CGTTCCTCTTCC; biotinylated 2'OMe, further chemistry not given here) [Oligo 14d, antisense 12 mer of the "14" region; biotinylated 2'OMe analog used for capture]”, in data set [1], the “RNaseH Digestion?” value is given as “yes” and the “ability … of hTR” value is “directed RNase H cleavage”. Besides, in the data set with telomerase [2], the “capture of active telomerase on streptavidin beads” value (“capture of active telomerase” below) is “"captured" active telomerase”, the “Capture? (2'OMe)” value was “yes” and the Activity on beads result is “yes”.

On to “5' CGT TCC TCT TCC TGC G9C CT 3' [Oligo 14ab]”, for which, in data set [1], the “RNaseH Digestion?” value is “yes” and the “ability … of hTR” value is reported as “directed RNase H cleavage”. For the same substance, in the data set with telomerase [2], the “capture of active telomerase” value is listed as “"captured" active telomerase”, the “Capture? (2'OMe)” value is reported as “yes” and the Activity on beads result is “yes”.

As to “5' CGTTCCTCTTCCTGCGGCCTGAAACGGTGA 3' (antisense CGTTCCTCTTCCTGCGGCCTGAAACGGTGA; chemistry not given here) [Oligo 14, antisense DNA 30 mer against hTR nucleotides 350-380]”, in data set [1], the “RNaseH Digestion?” value is “yes” and the “ability … of hTR” value is “directed efficient cleavage of hTR”. Further, the “inhibition of hTase activity” value in data set [3] is “did not significantly affect hTase activity”.

On to “5' CTGACAGAGCCCAACTCTTC 3' (antisense CTGACAGAGCCCAACTCTTC; chemistry not given here) [Oligo 16ab, antisense 20 mer of the "16" region]”, for which, in data set [1], the “RNaseH Digestion?” value was “yes” and the “ability … of hTR” value is given as “directed RNase H cleavage”. In addition, in the data set with telomerase [2], the “Capture? (2'OMe)” value is “yes” and the Activity on beads result was “no”.

With “5' CTGACAGAGCCCAACTCTTCGCGGTGGCAG 3' (antisense CTGACAGAGCCCAACTCTTCGCGGTGGCAG; chemistry not given here) [Oligo 16, antisense DNA 30 mer against hTR nucleotides 290-319]”, in data set [1], the “RNaseH Digestion?” value is on record as “yes” and the “ability … of hTR” value was “directed efficient cleavage of hTR”. For the same substance, the “inhibition of hTase activity” value in data set [3] is recorded as “did not significantly affect hTase activity”.

On to 5' GCT CTA G 3' [Oligo 21ab1], for which the “RNaseH Digestion?” value in data set [1] is reported as “yes”. Further, in the data set with telomerase [2], the “capture of active telomerase” value is recorded as “"captured" active telomerase”, the “Capture? (2'OMe)” value is reported as “yes” and the Activity on beads result was “yes”.

For the substance “5' GCT CTA GAA TG 3' (antisense GCTCTAGAATG; chemistry not given here) [Oligo 21ab2, shorter antisense oligo of the "21" region]”, the “RNaseH Digestion?” value in data set [1] is on record as “yes”. In addition, the “Capture? (2'OMe)” value in the data set on telomerase [2] is listed as “yes”.

In the case of “5' GCT CTA GAA TGA ACG 3' (antisense GCTCTAGAATGAACG; chemistry not given here) [Oligo 21ab3, shorter antisense oligo of the "21" region]”, in data set [1], the “RNaseH Digestion?” value is reported as “yes”.

With “5' GCT CTA GAA TGA ACG GTG G 3' (antisense GCTCTAGAATGAACGGTGG; chemistry not given here) [Oligo 21ab, shorter antisense oligo of the "21" region]”, the “RNaseH Digestion?” value in data set [1] is “yes”. Besides, in the data set on telomerase [2], the “Capture? (2'OMe)” value was “yes”.

For “5' GCTCTAGAATGAACGGTGGAAGGCGGCAGG 3' (antisense GCTCTAGAATGAACGGTGGAAGGCGGCAGG; chemistry not given here) [Oligo 21, antisense DNA 30 mer directed against nucleotides 137 to 166 of hTR]”, in data set [1], the “RNaseH Digestion?” value was “yes” and the “ability … of hTR” value is listed as “directed efficient cleavage of hTR”. Further, the “inhibition of hTase activity” value in data set [3] is reported as “potent inhibition of hTase”.

For “CGG GCC AGC AGC TGA CA (antisense CGGGCCAGCAGCTGACA; 2'-O-methyl, further chemistry not given here) [RP2]”, the “binding to the telomerase ribonucleoprotein” value in data set [4] is “found to bind”. In addition, the “ability to capture telomerase on an affinity matrix” value in the data set with telomerase [5] is “demonstrated an ability to capture telomerase”.
